Results reported in US11752104B2, “Oral composition and methods for manufacturing the same and treatment” (MEDICAL AND PHARMACEUTICAL INDUSTRY TECHNOLOGY AND …, priority 2019, dated 2023).

Assay: Particle size of milled tacrolimus particles by laser particle size analyzer (Malvern 3000)
Assay type: physicochemical
Conditions: for D90 / D10 / D50 / D [3, 3] / D [4, 3]: Malvern 3000
Method: The milling process is conducted under the water bath at the temperature of about 4 to 18° C. for decreasing high-released energy in case of the deactivation of the milled particles.
Table 1 illustrates the statistically analyzed diameter size of the milled particles after different milling time, detected by laser particle size analyzer, Malven 3000. After milling for 90 mins, the D90 of the particles is decreased to a level of less than 400 nm. Furthermore, it was observed that preferred D90 of milled particles would be limited in the range of 100 nm to 800 nm. If D90 is less than 100 nm, the issue of particle aggregation cannot be prevented. If D90 is greater than 800 nm, the favorable effect is not significant.

- D90 of the particles (after milling for 90 mins): less than 400 nm
- D90 (milling time 0 min (unmilled)): 17.000 μm
- D10 (milling time 0 min): 2.300 μm
- D50 (milling time 0 min): 6.600 μm
- D [3, 3] (milling time 0 min): 4.860 μm
- D [4, 3] (milling time 0 min): 8.880 μm
- D10 (milling time 15 min): 0.157 μm
- D50 (milling time 15 min): 0.338 μm
- D90 (milling time 15 min): 0.967 μm
- D [3, 3] (milling time 15 min): 0.294 μm
- D [4, 3] (milling time 15 min): 0.578 μm
- D10 (milling time 30 min): 0.119 μm
- D50 (milling time 30 min): 0.255 μm
- D90 (milling time 30 min): 0.572 μm
- D [3, 3] (milling time 30 min): 0.219 μm
- D [4, 3] (milling time 30 min): 0.328 μm
- D10 (milling time 45 min): 0.123 μm
- D50 (milling time 45 min): 0.270 μm
- D90 (milling time 45 min): 0.608 μm
- D [3, 3] (milling time 45 min): 0.230 μm
- D [4, 3] (milling time 45 min): 1.360 μm
- D10 (milling time 60 min): 0.094 μm
- D50 (milling time 60 min): 0.198 μm
- D90 (milling time 60 min): 0.426 μm
- D [3, 3] (milling time 60 min): 0.170 μm
- D [4, 3] (milling time 60 min): 0.232 μm
- D10 (milling time 75 min): 0.088 μm
- D50 (milling time 75 min): 0.183 μm
- D90 (milling time 75 min): 0.390 μm
- D [3, 3] (milling time 75 min): 0.158 μm
- D [4, 3] (milling time 75 min): 0.216 μm
- D10 (milling time 90 min): 0.083 μm
- D50 (milling time 90 min): 0.174 μm
- D90 (milling time 90 min): 0.364 μm
- D [3, 3] (milling time 90 min): 0.149 μm
- D [4, 3] (milling time 90 min): 0.202 μm
SMILES: C=CC[C@@H]1/C=C(\C)C[C@H](C)C[C@H](OC)[C@H]2O[C@@](O)(C(=O)C(=O)N3CCCC[C@H]3C(=O)O[C@H](/C(C)=C/[C@@H]3CC[C@@H](O)[C@H](OC)C3)[C@H](C)[C@@H](O)CC1=O)[C@H](C)C[C@@H]2OC [tacrolimus]
